The target of one series is T1, JAK1-JH2 domain (Homo sapiens, UniProt P23458).
T1 construct: JAK1-JH2 domain or TYK2-JH2 domain enzyme
Put plainly: Binding activity test for JAK1 JH2 domain (Tb-antibody/tracer FRET). Here is the method:
Binding Activity test for JH2 domain of JAK and TYK2
75 nL DMSO for high control and low control.
For low control, add 5 μL/well assay buffer. […] After enzyme system prepared, add 5 μL of Tb-antibody solution into each wells of assay plate. […] After Tb-antibody added, also add 5 μL of tracer into the assay plate. […] Incubate for 60 mins at 25° C. firstly and then continue to incubate the plate at 4° C. overnight. Read by envision in FRET mode. The Luminescence value was recorded by a multi-label reader Envision (PerkinElmer). Inhibition Rate was calculated relative to vehicle (DMSO) treated control wells using following formula:
wherein • RLU_compound=the relative light unit of cells treated with test compounds • RLU_low control=the relative light unit of medium with DMSO only • RLU_high control=the relative light unit of cells treated with DMSO only

The target of another series is T2, TYK2-JH2 domain (Homo sapiens, UniProt P29597).
T2 construct: JAK1-JH2 domain or TYK2-JH2 domain enzyme
T2 sequence (P29597 589-875 limits assumed): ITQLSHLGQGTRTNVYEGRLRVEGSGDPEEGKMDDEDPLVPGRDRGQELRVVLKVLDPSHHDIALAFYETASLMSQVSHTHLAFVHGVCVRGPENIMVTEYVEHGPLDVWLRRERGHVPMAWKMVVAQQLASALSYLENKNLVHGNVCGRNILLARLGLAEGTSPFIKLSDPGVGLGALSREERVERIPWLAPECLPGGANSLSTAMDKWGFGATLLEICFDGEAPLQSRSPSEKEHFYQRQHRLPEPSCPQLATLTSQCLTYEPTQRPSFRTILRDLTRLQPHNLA
Kind of series: Binding activity test for TYK2 JH2 domain (Tb-antibody/tracer FRET). The following applies: for JAK1/TYK2 selectivity: ratio of JAK1 JH2 to TYK2 JH2 binding IC50.

Series [1] in a line: Microsomal metabolic stability assay. The following applies: human, liver microsomes, pH 7.4, human liver microsomes 0.5 mg/mL; for microsomal CLint at 1 µM: read-out: Human LM Clint; for half-life at 1 µM: read-out: Human LM T½. The class given is in vitro ADME, human. Here is the method:
Microsomal Metabolic Stability Assay
Microsomes were pre-incubated with test compound or control compounds for 5 min at 37° C. in 100 mM potassium phosphate buffer, pH 7.4, 1.0 mM EDTA. The reaction was initiated by addition of 15 μL of the NADPH regenerating system to 30 μL of each incubation mixture per time point. The final incubation condition was composed of 0.5 mg/mL microsomal protein, 1 μM test article/positive control, 2 mM NADPH. The 0-minute samples were prepared by addition of a 30 μL aliquot of each incubation mixture to 135 μL quench reagent to precipitate proteins. And then a 15 μL aliquot of the NADPH regenerating system was added. At 5, 15, 30 and 45 minutes, the reaction will be stopped by the addition of cold acetonitrile solution containing internal standard. The samples taken at all time points were centrifuged at 5000×g for 15 minutes. 50 μL of supernatant are taken into 96-well assay plates pre-added with 50 μL ultrapure water, and then analyzed by LC/MS/MS.
Concentrations of test articles, control compounds in the samples were determined by using LC/MS/MS method. Plotting of the chromatograms and peak area integrations are carried out by Analyst (AB Sciex).
In the determination of the in vitro elimination constant (ke) of the control compounds, the analyte/internal standard peak area ratios will be converted to percentage remaining (% Remaining) with the following equation:
The CLint of microsomes was calculated using the formula: CLint (mic)=0.693/T1/2/mg microsome protein per mL. The slope was measured by the natural logarithm of the percentage of the residual compound and time, T1/2 was calculated according to the following formula.

Where [2] appears, read: read-out: JAK1 JH2 Binding IC50.
The mark [3] stands for this setting: read-out: TYK2 JH2 Binding IC50.

In general, IC50 refers to the concentration needed to halve the response being measured.

Like-named read-outs stand apart in the source and are kept apart here. Bounds are passed on as bounds.

T1 sequence (P23458 583-855 limits assumed): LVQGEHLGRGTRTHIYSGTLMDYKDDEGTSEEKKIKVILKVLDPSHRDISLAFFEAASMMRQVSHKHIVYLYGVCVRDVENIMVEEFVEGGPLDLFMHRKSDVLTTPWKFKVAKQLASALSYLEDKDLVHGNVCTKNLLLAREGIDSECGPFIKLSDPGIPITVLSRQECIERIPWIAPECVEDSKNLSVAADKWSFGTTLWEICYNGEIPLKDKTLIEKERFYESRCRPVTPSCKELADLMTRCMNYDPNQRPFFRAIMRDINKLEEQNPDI

For the molecule `[2H]C([2H])([2H])NC(=O)c1cnc(Nc2ccc(F)cn2)cc1Nc1ncc2cnn(CC(C)(F)F)c2c1OC` [Example 21, 4-((1-(2,2-Difluoropropyl)-7-methoxy-1H-pyrazolo[4,3-c]pyridin-6-yl)amino)-6-((5-fluoropyridin-2-yl)amino)-N-(methyl-d3)nicotinamide], the half-inhibitory concentration (IC50) on JAK1-JH2 domain (setting [2]) stood at 140 nM. For the same molecule, the JAK1/TYK2 selectivity on TYK2-JH2 domain is 353.07. For the same molecule, the IC50 at TYK2-JH2 domain (setting [3]) was found to be 0.396 nM. Besides, in series [1], the microsomal CLint at 1 µM came to 16.3 µL/min/mg and the half-life at 1 µM stood at 84.8 min.
In the case of `[2H]C([2H])([2H])NC(=O)c1cnc(NC(=O)C2CC2)cc1Nc1ncc2ncn(CC(F)(F)F)c2c1OC` [Example 25, 6-(Cyclopropanecarboxamido)-4-((7-methoxy-1-(2,2,2-trifluoroethyl)-1H-imidazo[4,5-c]pyridin-6-yl)amino)-N-(methyl-d3)nicotinamide], the results for the IC50 on JAK1-JH2 domain (setting [2]) and at TYK2-JH2 domain (setting [3]) were 46.7 nM and 0.174 nM, respectively. In addition, the JAK1/TYK2 selectivity on TYK2-JH2 domain stood at 268.51.
Regarding `[2H]C([2H])([2H])NC(=O)c1cnc(NC(=O)NCC)cc1Nc1ncc2cnn(CC(C)(F)F)c2c1OC` [Example 32, 4-((1-(2,2-Difluoropropyl)-7-methoxy-1H-pyrazolo[4,3-c]pyridin-6-yl)amino)-6-(3-ethylureido)-N-(methyl-d3)nicotinamide], the IC50 was greater than 298 nM on JAK1-JH2 domain (setting [2]) and 1.7 nM at TYK2-JH2 domain (setting [3]). Besides, on TYK2-JH2 domain, the JAK1/TYK2 selectivity was greater than 175.4.
As to `COC(=O)c1cnc(NC(=O)C2CC2)cc1Nc1ncn2ncc(C#N)c2c1OC` [Example 19, Methyl 4-((3-cyano-4-methoxypyrazolo[1,5-c]pyrimidin-5-yl)amino)-6-(cyclopropanecarboxamido)nicotinate], the IC50 at JAK1-JH2 domain (setting [2]) is 22.1 nM; on TYK2-JH2 domain (setting [3]), 1.63 nM. For the same molecule, the JAK1/TYK2 selectivity at TYK2-JH2 domain is recorded as 13.51.
With `[2H]C([2H])([2H])NC(=O)c1cnc(NC(=O)[C@H]2C[C@H]2F)cc1Nc1ncc2cnn(CC(C)(F)F)c2c1OC` [Example 11, 4-((1-(2,2-Difluoropropyl)-7-methoxy-1H-pyrazolo[4,3-c]pyridin-6-yl)amino)-6-((1R,2R)-2-fluorocyclopropane-1-carboxamido)-N-(methyl-d3)nicotinamide], at JAK1-JH2 domain (setting [2]), the IC50 was found to be 73.8 nM. Further, on TYK2-JH2 domain, the JAK1/TYK2 selectivity was 227.16. Further, the IC50 at TYK2-JH2 domain (setting [3]) was 0.325 nM. Besides, in series [1], the microsomal CLint at 1 µM was determined as 2.86 µL/min/mg and the half-life at 1 µM was found to be 485 min.
For the molecule `[2H]C([2H])([2H])NC(=O)c1cnc(NC(=O)C2CC2)cc1Nc1ccc2ncn(CC(C)(F)F)c2c1OC` [Example 31, 6-(Cyclopropanecarboxamido)-4-((1-(2,2-difluoropropyl)-7-methoxy-1H-benzo[d]imidazol-6-yl)amino)-N-(methyl-d3)nicotinamide], the IC50 at JAK1-JH2 domain (setting [2]) stood at 20.8 nM; on TYK2-JH2 domain (setting [3]), 0.3 nM. For the same molecule, the JAK1/TYK2 selectivity at TYK2-JH2 domain is 69.3.
For the molecule `[2H]C([2H])([2H])NC(=O)c1cnc(Nc2ccc(N3CCOCC3)cn2)cc1Nc1ccn2ncc(C#N)c2c1OC` [Example 6, 4-((3-Cyano-4-methoxypyrazolo[1,5-a]pyridin-5-yl)amino)-N-(methyl-d3)-6-((5-morpholinopyridin-2-yl)amino)nicotinamide], on JAK1-JH2 domain (setting [2]), the IC50 was 0.703 nM. Moreover, at TYK2-JH2 domain, the JAK1/TYK2 selectivity is on record as 4.48. Besides, on TYK2-JH2 domain (setting [3]), the IC50 was 0.157 nM. In series [1], the microsomal CLint at 1 µM turned out to be 28.4 µL/min/mg and the half-life at 1 µM was found to be 48.8 min.
Regarding `[2H]C([2H])([2H])NC(=O)c1cnc(NC(=O)NC)cc1Nc1ncc2cnn(CC(C)(F)F)c2c1OC` [Example 33, 4-((1-(2,2-Difluoropropyl)-7-methoxy-1H-pyrazolo[4,3-c]pyridin-6-yl)amino)-N-(methyl-d3)-6-(3-methylureido)nicotinamide], the IC50 is greater than 298 nM at JAK1-JH2 domain (setting [2]) and 2.14 nM on TYK2-JH2 domain (setting [3]). The JAK1/TYK2 selectivity at TYK2-JH2 domain is greater than 139.8.
Regarding `[2H]C([2H])([2H])NC(=O)c1cnc(NC(=O)C2CC2)cc1Nc1ncc2cnn(COCC[Si](C)(C)C)c2c1OC` [Example 1, 6-(Cyclopropanecarboxamido)-4-((7-methoxy-1-((2-(trimethylsilyl)ethoxy)methyl)-1H-pyrazolo[4,3-c]pyridin-6-yl)amino)-N-(methyl-d3)nicotinamide], the IC50 at JAK1-JH2 domain (JAK1 JH2 Binding IC50(nM)) is greater than 298 nM; at TYK2-JH2 domain (TYK2 JH2 Binding IC50(nM)) it was 9.31 nM. Further, on TYK2-JH2 domain, the JAK1/TYK2 selectivity is greater than 32.07.
As for `[2H]C([2H])([2H])NC(=O)c1cnc(NC(=O)[C@@H]2C[C@@H]2F)cc1Nc1ncn2ncc(C(C)C(F)(F)F)c2c1OC` (stereo partly drawn) [Example 13, 6-((1S,2S)-2-fluorocyclopropane-1-carboxamido)-4-((4-methoxy-3-(1,1,1-trifluoropropan-2-yl)pyrazolo[1,5-c]pyrimidin-5-yl)amino)-N-(methyl-d3)nicotinamide], the figures for the IC50 on JAK1-JH2 domain (setting [2]) and on TYK2-JH2 domain (setting [3]) were greater than 298 nM and 1.7 nM, respectively. The JAK1/TYK2 selectivity on TYK2-JH2 domain is greater than 175.38. In addition, the microsomal CLint at 1 µM in series [1] was 25.4 µL/min/mg. The half-life at 1 µM in series [1] was 54.5 min.
Take `[2H]C([2H])([2H])NC(=O)c1cnc(NC(=O)[C@@H]2C[C@@H]2F)cc1Nc1ncc2cnn(CC(C)(F)F)c2c1OC` [Example 8, 4-((1-(2,2-Difluoropropyl)-7-methoxy-1H-pyrazolo[4,3-c]pyridin-6-yl)amino)-6-((1S,2S)-2-fluorocyclopropane-1-carboxamido)-N-(methyl-d3)nicotinamide]: the half-maximal inhibitory concentration (IC50) worked out at 162 nM at JAK1-JH2 domain (setting [2]) and 0.288 nM at TYK2-JH2 domain (setting [3]). In addition, the JAK1/TYK2 selectivity at TYK2-JH2 domain worked out at 561.99.
Take `COC(=O)c1cnc(NC(=O)C2CC2)cc1Nc1ncc2cnn(CC(C)(F)F)c2c1OC` [Example 26, Methyl 6-(cyclopropanecarboxamido)-4-((1-(2,2-difluoropropyl)-7-methoxy-1H-pyrazolo[4,3-c]pyridin-6-yl)amino)nicotinate]: the half-inhibitory concentration (IC50) at JAK1-JH2 domain (setting [2]) amounted to 115 nM; on TYK2-JH2 domain (setting [3]), 0.26 nM. In addition, the JAK1/TYK2 selectivity at TYK2-JH2 domain is recorded as 443.32.
For the molecule `[2H]C([2H])([2H])NC(=O)c1cnc(Nc2ccc(N3CCOCC3)cn2)nc1Nc1ccn2ncc(C#N)c2c1OC` [Example 7, 4-((3-Cyano-4-methoxypyrazolo[1,5-a]pyridin-5-yl)amino)-N-(methyl-d)-2-((5-morpholinopyridin-2-yl)amino)pyrimidine-5-carboxamide], at JAK1-JH2 domain (setting [2]), the IC50 came out at 10.7 nM. The JAK1/TYK2 selectivity on TYK2-JH2 domain came to 26.60. The IC50 on TYK2-JH2 domain (setting [3]) came out at 0.404 nM. Further, in series [1], the microsomal CLint at 1 µM came to 28.1 µL/min/mg and the half-life at 1 µM was 49.3 min.
For the molecule `[2H]C([2H])([2H])NC(=O)c1cnc(NC(=O)C2CC2)cc1Nc1ncn2ncc(C(O)C(F)(F)F)c2c1OC` (stereo not drawn) [Example 30, 6-(Cyclopropanecarboxamido)-4-((4-methoxy-3-(2,2,2-trifluoro-1-hydroxyethyl)pyrazolo[1,5-c]pyrimidin-5-yl)amino)-N-(methyl-d3)nicotinamide], the IC50 came to 110 nM on JAK1-JH2 domain (setting [2]) and 0.134 nM at TYK2-JH2 domain (setting [3]). Also, the JAK1/TYK2 selectivity on TYK2-JH2 domain is 822.4.
Consider `CCC(=O)c1cnc(NC(=O)C2CC2)cc1Nc1ccc2cn[nH]c2c1OC` [Example 34, N-(4-((7-methoxy-1H-indazol-6-yl)amino)-5-propionylpyridin-2-yl)cyclopropanecarboxamide], for which the IC50 at JAK1-JH2 domain (setting [2]) is 31.7 nM. At TYK2-JH2 domain, the JAK1/TYK2 selectivity was determined as 8.0. In addition, the half-inhibitory concentration (IC50) on TYK2-JH2 domain (setting [3]) is 3.94 nM. For the same molecule, in series [1], the microsomal CLint at 1 µM was found to be 480 µL/min/mg and the half-life at 1 µM was 2.89 min.
